According to US6630510B1, “Substituted succinic acid metallo-β-lactamase inhibitors and their use in treating bacterial infections” (priority 1999, dated 2003):

Tests used:
[1] = test system: E. coli BL21(DE3)/pET30a-IMP-1; test: Carbapenem sensitivity (MIC) of E. coli expressing IMP-1; type: cell-based; settings: for fold reduced sensitivity resulting from basal (uninduced) IMP-1 expression: pET30a-IMP-1 introduced into E. coli BL21(DE3)
Description: A laboratory strain of E.coli engineered to express IMP-1 was used to evaluate the ability of succinate derivatives to reverse metallo-β-lactamase-mediated carbapenem resistance in bacteria. Native IMP-1, which included the N-terminal periplasmic signal sequence, was PCR amplified from […] isolated from a carbapenem resistant P. aeruginosa clinical isolate, CL56673, and cloned into the pET30a vector. […] To evaluate IMP-1 inhibitors, an overnight culture of E. coli BL2(DE3)/pET30a-IMP-1, grown 35° C. in LB broth (Difco) or Mueller Hinton broth (BBL) supplemented with kanamycin ([…]), was diluted to a final concentration of ˜10^5 cells/ml in Mueller Hinton broth (BBL) containing a subinhibitory concentration (0.25×MIC) of the carbapenem, (1S,5R,6S)-1-methyl-2-{7-[4-(aminocarbonylmethyl)-1,4-diazoniabicyclo(2.2.2)octan-1-yl]methyl-fluoren-9-on-3-yl}-6-(1R-hydroxyethyl)carbapen-2-em-3-carboxylate chloride. Various concentrations of IMP-1 inhibitor were added to the bacterial growth medium and their capacity to effect a four-fold or greater increase in sensitivity to the carbapenem was monitored.

[2] = test system: E. coli BL21(DE3); test: Carbapenem MIC in E. coli without IMP-1 expression; type: cell-based; settings: without expression of IMP-1

Compound: C[C@@H](O)[C@H]1C(=O)N2C(C(=O)O)=C(SCCN=CN)C[C@H]12 [impenem, imipenem, reference compound]
- fold reduced sensitivity resulting from basal (uninduced) IMP-1 expression [1]: 4 fold

Compound: C[C@@H](O)[C@H]1C(=O)N2C(C(=O)O)=C(S[C@@H]3CN[C@H](C(=O)N(C)C)C3)[C@H](C)[C@H]12 [meropenem, reference compound]
- fold reduced sensitivity resulting from basal (uninduced) IMP-1 expression [1]: 64 fold

Compound: (1S,5R,6S)-1-methyl-2-{7-[4-(aminocarbonylmethyl)-1,4-diazoniabicyclo(2.2.2)octan-1-yl]methyl-fluoren-9-on-3-yl}-6-(1R-hydroxyethyl)-carbapen-2-em-3-carboxylate chloride
- fold reduced sensitivity resulting from basal (uninduced) IMP-1 expression [1]: 500 fold
- minimum inhibitory concentration (MIC) ([1]; with expression of IMP-1): 16 to 32 µg/mL
- minimum inhibitory concentration (MIC) [2]: 0.06 to 0.12 µg/mL
